# In ChEMBL document CHEMBL4699440, “Comprehensive review on the anti-bacterial activity of 1,2,3-triazole hybrids” (Eur J Med Chem, 2019):
# How the values were obtained:
# Escherichia coli [1] = assay: Antibacterial activity against Escherichia coli MTCC […] by serial dilution method; type: functional
# Bacillus subtilis [2] = assay: Antibacterial activity against Bacillus subtilis MTCC 441 by serial dilution method; type: functional
# [3] = tested on: Staphylococcus epidermidis; assay: Antibacterial activity against Staphylococcus epidermidis MTCC 6880 by serial dilution method; type: functional
# Aspergillus niger = assay: Antibacterial activity against Aspergillus niger MTCC 8189 by serial dilution method; type: functional
# Pseudomonas aeruginosa [4] = assay: Antibacterial activity against Pseudomonas aeruginosa MTCC 424 by serial dilution method; type: functional
# Candida albicans = assay: Antibacterial activity against Candida albicans MTCC 227 by serial dilution method; type: functional
# Escherichia coli [5] = assay: Antibacterial activity against Escherichia coli assessed as inhibition zone at 10 mg/ml; type: functional; details: read-out: IZ
# Klebsiella pneumoniae = assay: Antibacterial activity against Klebsiella pneumoniae assessed as inhibition zone at 10 mg/ml; type: functional; details: read-out: IZ
# Proteus vulgaris = assay: Antibacterial activity against Proteus vulgaris assessed as inhibition zone at 10 mg/ml; type: functional; details: read-out: IZ
# Salmonella typhi = assay: Antibacterial activity against Salmonella typhi assessed as inhibition zone at 10 mg/ml; type: functional, Salmonella enterica subsp. enterica serovar Typhi; details: Salmonella enterica, read-out: IZ
# Pseudomonas aeruginosa [6] = assay: Antibacterial activity against Pseudomonas aeruginosa assessed as inhibition zone at 10 mg/ml; type: functional; details: read-out: IZ
# Bacillus subtilis [7] = assay: Antibacterial activity against Bacillus subtilis ATCC 6051 incubated for 24 hrs by broth microdilution method; type: functional
# Escherichia coli [8] = assay: Antibacterial activity against Escherichia coli ATCC 25922 incubated for 24 hrs by broth microdilution method; type: functional
# Pseudomonas aeruginosa [9] = assay: Antibacterial activity against Pseudomonas aeruginosa ATCC 25619 incubated for 24 hrs by broth microdilution method; type: functional
# Staphylococcus aureus = assay: Antibacterial activity against Staphylococcus aureus ATCC 12598 incubated for 24 hrs by broth microdilution method; type: functional
smiles,measurement,setting,value
Cc1cc(O)c(C(=O)/C=C/c2ccc(OCc3cn(Cc4cccc(F)c4)nn3)cc2)c(=O)o1,MIC,Escherichia coli [1],3 µM
same,MIC,Bacillus subtilis [2],3 µM
same,MIC,[3],3 µM
same,MIC,Aspergillus niger,3 µM
same,MIC,Pseudomonas aeruginosa [4],3 µM
same,MIC,Candida albicans,3 µM
COc1ccc2nc(Cl)c(Cn3cc(COc4ccccc4)nn3)cc2c1,zone of inhibition at 10000 µg/mL,Escherichia coli [5],7 mm
same,zone of inhibition at 10000 µg/mL,Klebsiella pneumoniae,7 mm
same,zone of inhibition at 10000 µg/mL,Proteus vulgaris,7 mm
same,zone of inhibition at 10000 µg/mL,Salmonella typhi,7 mm
same,zone of inhibition at 10000 µg/mL,Pseudomonas aeruginosa [6],7 mm
Cc1cc(O)c(C(=O)/C=C/c2ccc(OCc3cn(Cc4ccccc4[N+](=O)[O-])nn3)cc2)c(=O)o1,MIC,Escherichia coli [1],3 µM
same,MIC,Bacillus subtilis [2],3 µM
same,MIC,[3],3 µM
same,MIC,Aspergillus niger,3 µM
same,MIC,Pseudomonas aeruginosa [4],3 µM
same,MIC,Candida albicans,3 µM
COc1ccc(-n2cc(COc3ccc(/C=C/C(=O)c4c(O)cc(C)oc4=O)cc3)nn2)cc1,MIC,Escherichia coli [1],3.4 µM
same,MIC,Bacillus subtilis [2],3.4 µM
same,MIC,[3],3.4 µM
same,MIC,Aspergillus niger,3.4 µM
same,MIC,Pseudomonas aeruginosa [4],3.4 µM
same,MIC,Candida albicans,3.4 µM
CC(=O)Nc1ccc(OCc2cn(Cc3cc4cc(C)ccc4nc3Cl)nn2)cc1,zone of inhibition at 10000 µg/mL,Escherichia coli [5],7 mm
same,zone of inhibition at 10000 µg/mL,Klebsiella pneumoniae,7 mm
same,zone of inhibition at 10000 µg/mL,Proteus vulgaris,7 mm
same,zone of inhibition at 10000 µg/mL,Salmonella typhi,7 mm
same,zone of inhibition at 10000 µg/mL,Pseudomonas aeruginosa [6],7 mm
Cc1ccc(OCc2cn(Cc3cc4ccccc4nc3Cl)nn2)cc1,zone of inhibition at 10000 µg/mL,Escherichia coli [5],7 mm
same,zone of inhibition at 10000 µg/mL,Klebsiella pneumoniae,7 mm
same,zone of inhibition at 10000 µg/mL,Proteus vulgaris,7 mm
same,zone of inhibition at 10000 µg/mL,Salmonella typhi,7 mm
same,zone of inhibition at 10000 µg/mL,Pseudomonas aeruginosa [6],7 mm
Cc1ccc2nc(Cl)c(Cn3cc(COc4ccc([N+](=O)[O-])cc4)nn3)cc2c1,zone of inhibition at 10000 µg/mL,Escherichia coli [5],7 mm
same,zone of inhibition at 10000 µg/mL,Klebsiella pneumoniae,7 mm
same,zone of inhibition at 10000 µg/mL,Proteus vulgaris,7 mm
same,zone of inhibition at 10000 µg/mL,Salmonella typhi,7 mm
same,zone of inhibition at 10000 µg/mL,Pseudomonas aeruginosa [6],7 mm
Cc1cc(O)c(C(=O)/C=C/c2ccc(OCc3cn(-c4ccc([N+](=O)[O-])cc4)nn3)cc2)c(=O)o1,MIC,Escherichia coli [1],3 µM
same,MIC,Bacillus subtilis [2],3 µM
same,MIC,[3],3 µM
same,MIC,Aspergillus niger,3 µM
same,MIC,Pseudomonas aeruginosa [4],3 µM
same,MIC,Candida albicans,3 µM
CN[C@@H]1[C@H](O[C@H]2[C@H](O[C@H]3[C@H](O)[C@@H](O)[C@H](N=C(N)N)[C@@H](O)[C@@H]3N=C(N)N)O[C@@H](C)[C@]2(O)C=O)O[C@@H](CO)[C@H](O)[C@H]1O [STREPTOMYCIN],MIC,Bacillus subtilis [7],2 µg/mL
same,MIC,Escherichia coli [8],2 µg/mL
same,MIC,Pseudomonas aeruginosa [9],4 µg/mL
same,MIC,Staphylococcus aureus,2 µg/mL
Cc1ccc2nc(Cl)c(Cn3cc(COc4ccccc4Cl)nn3)cc2c1,zone of inhibition at 10000 µg/mL,Escherichia coli [5],7 mm
same,zone of inhibition at 10000 µg/mL,Klebsiella pneumoniae,7 mm
same,zone of inhibition at 10000 µg/mL,Proteus vulgaris,7 mm
same,zone of inhibition at 10000 µg/mL,Salmonella typhi,7 mm
same,zone of inhibition at 10000 µg/mL,Pseudomonas aeruginosa [6],7 mm
Cc1cc(O)c(C(=O)/C=C/c2ccc(OCc3cn(Cc4cccc(Br)c4)nn3)cc2)c(=O)o1,MIC,Escherichia coli [1],3 µM
same,MIC,Bacillus subtilis [2],3 µM
same,MIC,[3],3 µM
same,MIC,Aspergillus niger,3 µM
same,MIC,Pseudomonas aeruginosa [4],3 µM
same,MIC,Candida albicans,3 µM
Clc1nc2ccccc2cc1Cn1cc(COc2ccccc2)nn1,zone of inhibition at 10000 µg/mL,Escherichia coli [5],7 mm
same,zone of inhibition at 10000 µg/mL,Klebsiella pneumoniae,7 mm
same,zone of inhibition at 10000 µg/mL,Proteus vulgaris,7 mm
same,zone of inhibition at 10000 µg/mL,Salmonella typhi,7 mm
same,zone of inhibition at 10000 µg/mL,Pseudomonas aeruginosa [6],7 mm
Cc1cc(O)c(C(=O)/C=C/c2ccc(OCc3cn(Cc4ccc([N+](=O)[O-])cc4)nn3)cc2)c(=O)o1,MIC,Escherichia coli [1],3 µM
same,MIC,Bacillus subtilis [2],3 µM
same,MIC,[3],3 µM
same,MIC,Aspergillus niger,3 µM
same,MIC,Pseudomonas aeruginosa [4],3 µM
same,MIC,Candida albicans,3 µM
Cc1cc(O)c(C(=O)/C=C/c2ccc(OCc3cn(Cc4ccccc4Br)nn3)cc2)c(=O)o1,MIC,Escherichia coli [1],3 µM
same,MIC,Bacillus subtilis [2],3 µM
same,MIC,[3],3 µM
same,MIC,Aspergillus niger,3 µM
same,MIC,Pseudomonas aeruginosa [4],3 µM
same,MIC,Candida albicans,3 µM
Cc1cc(O)c(C(=O)/C=C/c2ccc(OCc3cn(-c4ccc(Br)cc4)nn3)cc2)c(=O)o1,MIC,Escherichia coli [1],3 µM
same,MIC,Bacillus subtilis [2],3 µM
same,MIC,[3],3 µM
same,MIC,Aspergillus niger,3 µM
same,MIC,Pseudomonas aeruginosa [4],3 µM
same,MIC,Candida albicans,3 µM
COc1ccc2nc(Cl)c(Cn3cc(COc4ccc(NC(C)=O)cc4)nn3)cc2c1,zone of inhibition at 10000 µg/mL,Escherichia coli [5],7 mm
same,zone of inhibition at 10000 µg/mL,Klebsiella pneumoniae,7 mm
same,zone of inhibition at 10000 µg/mL,Proteus vulgaris,7 mm
same,zone of inhibition at 10000 µg/mL,Salmonella typhi,7 mm
same,zone of inhibition at 10000 µg/mL,Pseudomonas aeruginosa [6],7 mm
Cc1cc(OCc2cn(Cc3cc4ccccc4nc3Cl)nn2)ccc1Cl,zone of inhibition at 10000 µg/mL,Escherichia coli [5],7 mm
same,zone of inhibition at 10000 µg/mL,Klebsiella pneumoniae,7 mm
same,zone of inhibition at 10000 µg/mL,Proteus vulgaris,7 mm
same,zone of inhibition at 10000 µg/mL,Salmonella typhi,7 mm
same,zone of inhibition at 10000 µg/mL,Pseudomonas aeruginosa [6],7 mm
Cc1ccc(OCc2cn(Cc3cc4cc(C)ccc4nc3Cl)nn2)cc1,zone of inhibition at 10000 µg/mL,Escherichia coli [5],7 mm
same,zone of inhibition at 10000 µg/mL,Klebsiella pneumoniae,7 mm
same,zone of inhibition at 10000 µg/mL,Proteus vulgaris,7 mm
same,zone of inhibition at 10000 µg/mL,Salmonella typhi,7 mm
same,zone of inhibition at 10000 µg/mL,Pseudomonas aeruginosa [6],7 mm
Cc1cc(O)c(C(=O)/C=C/c2ccc(OCc3cn(Cc4ccc(F)cc4)nn3)cc2)c(=O)o1,MIC,Escherichia coli [1],3 µM
same,MIC,Bacillus subtilis [2],3 µM
same,MIC,[3],3 µM
same,MIC,Aspergillus niger,3 µM
same,MIC,Pseudomonas aeruginosa [4],3 µM
same,MIC,Candida albicans,3 µM
